In patent publication US20190161516A1, “PROTEASOME INHIBITORS” (University of Kentucky Research Foundation, priority 2017, published 2019):
Where two headings read alike, the source gives them in different places.

Key:
[1] = tested on: Chymotrypsin-like activity (β5/β5i); test: Proteasome inhibitory activity, subunit-specific cell lysate IC50, chymotrypsin-like activity; format: biochemical
LMP2/β1i = LMP2/β1i (Homo sapiens, UniProt P28065+P40306); test: Proteasome inhibitory activity, subunit-specific cell lysate IC50, LMP2; format: biochemical; design: Subunit-Specific Cell lysate IC50 (μM); endogenous in cells
BV-2 cells = test: LPS-induced IL-6 production in BV-2 microglial cell line; format: cell-based; conditions: FIG. 14
Description: To test this, we used BV-2 cell line, a microglial cell line, known to upregulate cytokines in response to LPS treatment. […] We suspect these contradictory results are due to cell type-specific role of LMP2, indicating a distinct role of LMP2 in microglia inflammatory response.

[2] = tested on: human peripheral blood mononuclear cells (PBMCs); conditions: previous studies; cited from earlier work
[3] = read-out: Subunit-Specific Cell lysate IC50, LMP2 (β1i)
[4] = Subunit-Specific Cell lysate IC50, LMP2 (β1i)

CC(C)C[C@H](NC(=O)[C@H](Cc1ccccc1)NC(=O)[C@@H]1CCCN1C(=O)c1cccc(O)n1)C(=O)[C@@]1(C)CO1 [Analogue 2]
IC50 [1]: > 10000 nM | IC50 (LMP2/β1i; [3]): 1000 nM

CC(=O)NCC(=O)N1CCC[C@H]1C(=O)N[C@@H](Cc1ccc(-c2ccccc2)cc1)C(=O)N[C@@H](CC(C)C)C(=O)[C@@]1(CO)CO1 [Analogue 4]
IC50 [1]: > 10000 nM | IC50 (LMP2/β1i; [3]): 650 nM

CC(=O)NCC(=O)N1CCC[C@H]1C(=O)N[C@@H](Cc1ccc2ccccc2c1)C(=O)N[C@@H](CC(C)C)C(=O)[C@@]1(C)CO1 [Analogue 7]
IC50 [1]: > 10000 nM | IC50 (LMP2/β1i; [3]): 30 nM

CC(=O)NCC(=O)N1CCC[C@H]1C(=O)N[C@@H](Cc1ccc(NC(=O)c2cnccn2)cc1)C(=O)N[C@@H](CC(C)C)C(=O)[C@@]1(C)CO1 [Analogue 28]
IC50 [1]: > 10000 nM | IC50 (LMP2/β1i; [4]): 30 nM

CC(=O)NCC(=O)N1CCC[C@H]1C(=O)N[C@@H](Cc1ccc(-c2ccccc2)cc1)C(=O)N[C@@H](CC(C)C)C(=O)[C@@]1(C)CO1 [Analogue 8]
IC50 [1]: 5000 nM | IC50 (LMP2/β1i; [3]): 20 nM

Cc1ncc(C(=O)NCC(=O)N2CCC[C@H]2C(=O)N[C@@H](Cc2ccc(-c3ccccc3)cc2)C(=O)N[C@@H](CC(C)C)C(=O)[C@@]2(C)CO2)s1 [Analogue 24]
IC50 (LMP2/β1i; [3]): 130 nM

CC(C)C[C@H](NC(=O)[C@H](Cc1ccccc1)NC(=O)[C@@H]1CCCN1C(=O)CNC(=O)c1cccc(O)n1)C(=O)[C@@]1(C)CO1 [Analogue 17]
IC50 [1]: > 10000 nM | IC50 (LMP2/β1i; [3]): 140 nM

CC(=O)NCC(=O)N1CCC[C@H]1C(=O)N[C@@H](Cc1ccc2ccccc2c1)C(=O)N[C@@H](CC(C)C)C(=O)[C@@]1(CO)CO1 [Analogue 6]
IC50 [1]: 7000 nM | IC50 (LMP2/β1i; [3]): 2200 nM

Cc1ncc(C(=O)NCC(=O)N2CCC[C@H]2C(=O)N[C@@H](CCc2ccccc2)C(=O)N[C@@H](CC(C)C)C(=O)[C@@]2(C)CO2)s1 [Analogue 19]
IC50 [1]: > 10000 nM | IC50 (LMP2/β1i; [3]): 180 nM

CC(=O)NCC(=O)N1CCC[C@H]1C(=O)N[C@@H](CCc1ccccc1)C(=O)N[C@@H](CC(C)C)C(=O)[C@@]1(C)CO1 [Analogue 13]
IC50 [1]: > 10000 nM | IC50 (LMP2/β1i; [3]): 60 nM

CC(=O)NCC(=O)N1CCC[C@H]1C(=O)N[C@@H](Cc1ccc(NC(=O)CN2CCOCC2)cc1)C(=O)N[C@@H](CC(C)C)C(=O)[C@@]1(C)CO1 [Analogue 29]
IC50 [1]: > 10000 nM | IC50 (LMP2/β1i; [3]): 90 nM

CC(C)C[C@H](NC(=O)[C@H](Cc1ccccc1)NC(=O)[C@@H]1CCCN1C(=O)CN1CCOCC1)C(=O)[C@@]1(C)CO1 [Analogue 1]
IC50 [1]: > 10000 nM | IC50 (LMP2/β1i; [3]): 1200 nM

CC(=O)NCC(=O)N1CCCCC1C(=O)N[C@@H](Cc1ccccc1)C(=O)N[C@@H](CC(C)C)C(=O)[C@@]1(C)CO1 (stereo partly shown) [Analogue 14]
IC50 [1]: 1000 nM | IC50 (LMP2/β1i; [3]): 120 nM

CC(=O)NCC(=O)N1CCC[C@H]1C(=O)N[C@@H](Cc1ccncc1)C(=O)N[C@@H](CC(C)C)C(=O)[C@@]1(C)CO1 [Analogue 30]
IC50 (LMP2/β1i; [3]): 120 nM

CC(C)C[C@H](NC(=O)[C@H](Cc1ccc2ccccc2c1)NC(=O)[C@@H]1CCCN1C(=O)CNC(=O)c1cnccn1)C(=O)[C@@]1(C)CO1 [Analogue 23]
IC50 (LMP2/β1i; [3]): 60 nM

CC(C)C[C@H](NC(=O)[C@H](Cc1ccc(-c2ccccc2)cc1)NC(=O)[C@@H]1CCCN1C(=O)CNC(=O)c1cnccn1)C(=O)[C@@]1(C)CO1 [Analogue 22]
IC50 [1]: 5000 nM | IC50 (LMP2/β1i; [3]): 90 nM

Cc1cc(C(=O)NCC(=O)N2CCC[C@H]2C(=O)N[C@@H](CCc2ccccc2)C(=O)N[C@@H](CC(C)C)C(=O)[C@@]2(C)CO2)no1 [Analogue 21]
IC50 [1]: > 10000 nM | IC50 (LMP2/β1i; [3]): 130 nM

CC(C)C[C@H](NC(=O)[C@H](Cc1ccccc1)NC(=O)[C@@H]1CCCN1C(=O)CN1CCOCC1=O)C(=O)[C@@]1(C)CO1 [Analogue 3]
IC50 [1]: > 10000 nM | IC50 (LMP2/β1i; [3]): 1000 nM

Cc1ncc(C(=O)NCC(=O)N2CCC[C@H]2C(=O)N[C@@H](Cc2ccc3ccccc3c2)C(=O)N[C@@H](CC(C)C)C(=O)[C@@]2(C)CO2)s1 [Analogue 26]
IC50 (LMP2/β1i; [3]): 90 nM

Cc1ncc(C(=O)NCC(=O)N2CCC[C@H]2C(=O)N[C@@H](Cc2ccccc2)C(=O)N[C@@H](CC(C)C)C(=O)[C@@]2(C)CO2)s1 [Analogue 15]
IC50 [1]: > 10000 nM | IC50 (LMP2/β1i; [3]): 100 nM

CC(=O)NCC(=O)N1CCC[C@H]1C(=O)N[C@@H](Cc1ccc2ccccc2c1)C(=O)N[C@@H](CC(C)C)C(=O)[C@@]1(CO[Si](c2ccccc2)(c2ccccc2)C(C)(C)C)CO1 [Analogue 5]
IC50 [1]: > 10000 nM | IC50 (LMP2/β1i; [4]): > 10000 nM

CC(=O)NCC(=O)N1CCC[C@H]1C(=O)N[C@@H](Cc1cccc2ccccc12)C(=O)N[C@@H](CC(C)C)C(=O)[C@@]1(C)CO1 [Analogue 10]
IC50 [1]: > 10000 nM | IC50 (LMP2/β1i; [3]): 30 nM

CC(=O)NCC(=O)N1CCC[C@H]1C(=O)N[C@@H](Cc1ccc(NC(=O)c2ccccc2)cc1)C(=O)N[C@@H](CC(C)C)C(=O)[C@@]1(C)CO1 [Analogue 18]
IC50 [1]: 5000 nM | IC50 (LMP2/β1i; [4]): 70 nM

CC(C)C[C@H](NC(=O)[C@H](CCc1ccccc1)NC(=O)[C@@H]1CCCN1C(=O)CNC(=O)c1cnccn1)C(=O)[C@@]1(C)CO1 [Analogue 20]
IC50 (LMP2/β1i; [3]): 100 nM

CCc1ccc(C[C@H](NC(=O)[C@@H]2CCCN2C(=O)CNC(C)=O)C(=O)N[C@@H](CC(C)C)C(=O)[C@@]2(C)CO2)cc1 [Analogue 9]
IC50 [1]: > 10000 nM | IC50 (LMP2/β1i; [3]): 130 nM

COc1ccc(C[C@H](NC(=O)[C@H](C)NC(=O)CN2CCOCC2)C(=O)N[C@@H](Cc2ccccc2)C(=O)[C@@]2(C)CO2)cc1 [ONX-0914]
IL-6 production induced by LPS (BV-2 cells): less effective in blocking IL-6 production | LPS-induced cytokine production including IL-6 [2]: almost completely blocked

CC(C)C[C@H](NC(=O)[C@H](Cc1ccccc1)NC(=O)[C@@H]1CCCN1C(=O)CNC(=O)S(C)(=O)=O)C(=O)[C@@]1(C)CO1 [Analogue 27]
IC50 [1]: > 10000 nM | IC50 (LMP2/β1i; [3]): 110 nM

CC(=O)NCC(=O)N1CCC[C@H]1C(=O)N[C@@H](Cc1ccccc1)C(=O)N[C@@H](CC(C)C)C(=O)[C@@]1(CO)CO1 [Analogue 11]
IC50 [1]: > 10000 nM | IC50 (LMP2/β1i; [3]): 60 nM

CC(C)C[C@H](NC(=O)[C@H](Cc1ccccc1)NC(=O)[C@@H]1CCCN1C(=O)CNC(=O)C(F)(F)F)C(=O)[C@@]1(C)CO1 [Analogue 25]
IC50 [1]: > 10000 nM | IC50 (LMP2/β1i; [3]): 130 nM

CC(=O)NCC(=O)N1CC(F)(F)C[C@H]1C(=O)N[C@@H](Cc1ccccc1)C(=O)N[C@@H](CC(C)C)C(=O)[C@@]1(C)CO1 [Analogue 12]
IC50 [1]: > 10000 nM | IC50 (LMP2/β1i; [3]): 70 nM
